From US11065294B2, “Composition including oriental medicine to treat neoplastic disease” (COMPREHENSIVE AND INTEGRATIVE MEDICINE INSTITUTE, priority 2013, dated 2021)
“And” between values parts separate entries of the source, which are not always exact repeats. Identical values can stand only once. Counter-ions that a name gives are not always drawn. Marks after values point to notes of the source that are not given here.

Columns and labels:
[1] = system: HepG2 cells; test: HepG2 cell viability, MTT method (BJIKT, sorafenib); assay type: cell-based; settings: Homo sapiens
[2] = system: HepG2 cells; test: HepG2 cell viability, MTT method (YMJHT, sorafenib); assay type: cell-based; settings: Homo sapiens
[3] = mouse, in vivo
[4] = sorafenib 100 mg/kg single
[5] = system: NCI-H520 cell xenograft; test: NCI-H520 xenograft nude mice, 35 days oral: gefitinib 120 mg/kg single, bojungikgi-tang 400 mg/kg single, or co-administered within 5 minutes; assay type: in vivo, Balb/c Slc nu/nu mice; settings: co-adm BJIKT 100/200/400 mg/kg in order
Description: A total of 73 nude mice were purchased, and NCI-H520 cells were xenografted into a subcutaneous region of a right hip each of 67 mice. 14 days after the grafting, the xenografted mice having a tumor volume of 100 mm^3 or more were selected, and divided into seven groups of 6 mice each to be used in the experiment as listed in Table 16. Separately, 6 mice were prepared as the vehicle control.
Then, the NCI-H520 cells were cultured to a density of 1.0×10^8 cells/ml to prepare a tumor cell suspension, and 0.2 mL (2×10^7 cells/head) of the NCI-H520 tumor cell suspension was injected into subcutaneous regions of right back buttocks of the mice to form a solid tumor mass.

[6] = in vivo; settings: male, SD, rat, plasma, po, 50 mg/kg
[7] = in vivo; settings: male, SD, rat, plasma, po, 50 mg/kg; for AUC(0-inf): AUC0-inf of gefitinib; for AUC(0-t): AUC0-t of gefitinib; for Cmax: Cmax of gefitinib; for MRT inf: MRTinf of gefitinib; for half-life: t1/2 of gefitinib
[8] = system: MCF-7 cell xenograft; test: MCF-7 xenograft nude mice, 35 days oral: tamoxifen 20 mg/kg single, JEKHT 500 mg/kg single, or co-administered within 5 minutes; tumor, immune and cachexia readouts; assay type: in vivo, Balb/c Slc nu/nu mice
Excerpt: In Example 3, as laboratory animals, Balb/c Slc nu/nu mice (5-week-old females, SLC, Shizuoka, Japan) were used. Seventy three nude mice were purchased, and sixty seven xenografted mice having a tumor volume of 50 mm^3 or more 14 days after MCF-7 cells were xenografted into subcutaneous parts of a right hip of each mouse were selected, and divided into groups of seven mice each.
The xenografted MCF-7 cells were maintained by sub-culturing the MCF-7 cells (American Type Culture Collection Center, VA, USA) using 10% fetal bovine serum (FBS)-added RPMI 1640 (Gibco, Grand Island, N.Y., USA) media in a 5% C02 incubator at 37° C., and a solid tumor mass was formed by preparing a tumor cell suspension to have a cell concentration of 1.0×10^8 cell/ml, and grafting 0.2 ml (2×10^7 cell/mouse) of the MCF-7 tumor cell suspension on a subcutaneous part of a right hip of each mouse.

[9] = in vivo; settings: male, SD, rat, plasma
[10] = in vivo; settings: male, SD, rat, plasma; for Cmax / MRT inf / Tmax / half-life: oral; for Cmax: Blood Cmax of tamoxifen; for MRT inf: Blood MRTinf of tamoxifen; for Tmax: Blood Tmax of tamoxifen; for half-life: Blood t1/2 of tamoxifen; for AUC(0-inf) / AUC(0-t): po, 50 mg/kg; for AUC(0-inf): Blood tamoxifen AUC0-inf; for AUC(0-t): Blood tamoxifen AUC0-t
[11] = co-adm JEKHT 125/250/500 mg/kg in order
[12] = co-adm JEKHT dose given in table
[13] = submandibular lymph node, JEKHT dose = table row
[14] = tumor mass, JEKHT dose = table row

CNC(=O)c1cc(Oc2ccc(NC(=O)Nc3ccc(Cl)c(C(F)(F)F)c3)cc2)ccn1 [Sorafenib, sorafenib]
IC50 [1]: 2.8 µM and 1.3 µg/mL | IC50 [2]: 2.81 µM and 1.31 µg/mL | Any abnormal signs ([3]; male, ICR, 28 days): 0/7 (0%) | Normal appearance ([3]; male, ICR, 28 days): 7/7 (100%) | Adrenal G L absolute weight [3]: 0.003 ± 0.002 | BASO (%) [3]: 0.30 ± 0.20% | Body weight gain, Day 0~Day 14 [3]: 6.63 ± 1.62 | Body weight gain, Day 14~Day 27 [3]: 2.11 ± 1.51 | Brain absolute weight [3]: 0.471 ± 0.022 | Epididymis L absolute weight [3]: 0.036 ± 0.004^a | HCT [3]: 41.89 ± 2.13% | HGB [3]: 18.54 ± 0.88 g/dL | Heart absolute weight [3]: 0.155 ± 0.011 | Kidney L absolute weight [3]: 0.285 ± 0.042 | LN L absolute weight [3]: 0.002 ± 0.001^a | LYM (%) [3]: 70.74 ± 6.08^c % | Liver absolute weight [3]: 1.234 ± 0.149 | Lung absolute weight [3]: 0.172 ±0 .010 | MCH [3]: 20.89 ± 0.88 pg | MCV [3]: 47.13 ± 2.47 fL | MONO (%) [3]: 5.26 ± 1.55% | NEU (%) [3]: 17.36 ± 5.16^c % | PLT [3]: 804.86 ± 99.24 K/μL | Pancreas S absolute weight [3]: 0.156 ± 0.022 | RBC [3]: 8.89 ± 0.39 M/μL | RET [3]: 0.51 ± 0.33 ea/1000 | Spleen absolute weight [3]: 0.063 ± 0.007^e | Testis L absolute weight [3]: 0.097 ± 0.006^a | Thymus absolute weight [3]: 0.027 ± 0.004^a | WBC [3]: 1.81 ± 0.53^a K/μL | Deaths, Days of treatment period (Day 0 to 27) [4]: 0 | Deaths, Termination date (28th day of administration) [4]: 0

COc1cc2ncnc(Nc3ccc(F)c(Cl)c3)c2cc1OCCCN1CCOCC1 [Gefitinib]
Absolute periovarian fat pad weight, change vs TB control [5]: −3.06% | Absolute spleen weight, change vs TB control [5]: 14.01% | Absolute submandibular lymph node weight, change vs TB control [5]: 50.00% | Absolute tumor weight change [5]: −39.14% | Blood IFN-γ content, change vs TB control [5]: 6.77% | Blood IL-6 content, change vs TB control [5]: −12.33% | Body weight gain, change vs tumor-bearing control [5]: 68.23% | COX-2 immunoreactive cells in tumor tissue, change vs TB control [5]: −42.48% | Caspase-3 immunoreactive cells in tumor tissue, change vs TB control [5]: 168.67% | Diameter of splenic white pulp, change vs TB control [5]: 6.51% | Follicles in submandibular lymph node cortex, change vs TB control [5]: 15.00% | Mean white adipocyte diameter, change vs TB control [5]: −7.01% | Number of splenic white pulps, change vs TB control [5]: 22.22% | PARP immunoreactive cells in tumor tissue, change vs TB control [5]: 125.47% | Percentage of apoptotic cells in tumor tissue, change vs TB control [5]: 131.78% | Percentage of tumor cells in tumor tissue, change vs TB control [5]: −36.78% | Periovarian fat pad thickness, change vs TB control [5]: 2.11% | Spleen IL-1β content, change vs TB control [5]: 8.36% | Spleen IL-10 content, change vs TB control [5]: 5.16% | Spleen TNF-α content, change vs TB control [5]: 6.73% | Splenic NK cell activity, change vs TB control [5]: 4.93% | Submandibular lymph node cortex thickness, change vs TB control [5]: 16.19% | TNF-α immunoreactive cells in tumor tissue, change vs TB control [5]: 12.63% | Total spleen thickness, change vs TB control [5]: −6.99% | Total submandibular lymph node thickness, change vs TB control [5]: 7.42% | Tumor volume variation, change vs tumor-bearing control [5]: −55.42% | iNOS immunoreactive cells in tumor tissue, change vs TB control [5]: 9.02% | AUC(0-inf) [6]: 16400 ± 9310 ng·h/mL | AUC(0-t) [6]: 14600 ± 9450 ng·h/mL | Cmax [6]: 2160 ± 760 ng/mL | half-life [6]: 2.59 ± 0.76 h | AUC(0-inf) ([7]; 9th administration): 16900 ± 4140 ng·h/mL | AUC(0-inf) ([7]; first gefitinib administration): 20200 ± 4610 ng·h/mL | AUC(0-t) ([7]; 9th administration): 13500 ± 2780 ng·h/mL | AUC(0-t) ([7]; first gefitinib administration): 15400 ± 2240 ng·h/mL | Cmax ([7]; 9th administration): 3120 ± 770 ng/mL | Cmax ([7]; first gefitinib administration): 3010 ± 480 ng/mL | MRT inf ([7]; 9th administration): 5.71 ± 1.04 h | MRT inf ([7]; first gefitinib administration): 5.94 ± 1.36 h | half-life ([7]; 9th administration): 2.38 ± 0.88 h | half-life ([7]; first gefitinib administration): 2.82 ± 0.92 h

CC/C(=C(\c1ccccc1)c1ccc(OCCN(C)C)cc1)c1ccccc1 [Tamoxifen, Tamoxifen citrate]
Periovarian fat pad total thickness ([8]; JEKHT dose = table row): 0.28 ± 0.10^a mm/central regions | Spleen total thickness ([8]; JEKHT dose = table row): 1.15 ± 0.13^a mm/central regions | Spleen white pulp diameters ([8]; JEKHT dose = table row): 298.11 ± 61.88^a μm/white pulp | Spleen white pulp numbers ([8]; JEKHT dose = table row): 4.14 ± 1.07^a /mm^2 | Submandibular lymph node total thickness ([8]; JEKHT dose = table row): 487.38 ± 83.96^a μm/central regions | Blood IFN-γ content, change vs tumor-bearing control [8, 11]: −14.77% | Blood IL-6 content, change vs tumor-bearing control [8, 11]: 21.68% | Body weight gain, change vs tumor-bearing control [8, 11]: −11162.72% | Peritoneal NK cell activity, change vs tumor-bearing control [8, 11]: −26.39% | Splenic IL-1β content, change vs tumor-bearing control [8, 11]: −10.82% | Splenic IL-10 content, change vs tumor-bearing control [8, 11]: −33.33% | Splenic NK cell activity, change vs tumor-bearing control [8, 11]: −12.73% | Splenic TNF-α content, change vs tumor-bearing control [8, 11]: −23.94% | Tumor volume variation, change vs tumor-bearing control [8, 11]: −66.73% | Periovarian fat pad absolute weight [8, 12]: 0.009 ± 0.003 g | Spleen absolute weight [8, 12]: 0.049 ± 0.009 g | Submandibular lymph node absolute weight [8, 12]: 0.002 ± 0.001 g | Tumor mass absolute weight [8, 12]: 0.047 ± 0.010 g | Tumor volume Changes [B − A] [8, 12]: 125.92 ± 40.49^a mm^3 | Tumor volume, Sacrifice [B] [8, 12]: 184.85 ± 37.69^a mm^3 | White adipocyte diameters ([8]; periovarian fat pad, JEKHT dose = table row): 19.89 ± 5.09^a μm | Cortex lymphoid cell follicle numbers [8, 13]: 4.14 ± 1.68^gj /mm^2 | Cortex thickness [8, 13]: 255.43 ± 46.37^a μm/lymph node | TNF-positive cells [8, 13]: 6.57 ± 2.51^gj cells/mm^2 of lymph node | Apoptotic cell percentages [8, 14]: 27.50 ± 6.62% | Tumor cell volume [8, 14]: 51.00 ± 10.37 %/mm^2 | AUC(0-inf) ([9]; oral): 6860 ± 2920 ng·h/mL | AUC(0-t) ([9]; oral): 5270 ± 1790 ng·h/mL | Cmax ([9]; oral): 364 ± 122 ng/mL | MRT inf ([9]; oral): 14.9 ± 6.29 h | Tmax ([9]; oral): 5.6 ± 2.19 h | half-life ([9]; po, 50 mg/kg): 9.56 ± 4.16 h | Cmax ([10]; 8th administration): 770 ± 220 ng/mL | Cmax ([10]; first tamoxifen administration): 280 ± 160 ng/mL | MRT inf ([10]; 8th administration): 28.5 ± 8.53 h | MRT inf ([10]; first tamoxifen administration): 18.1 ± 5.71 h | Tmax ([10]; 8th administration): 3.4 ± 0.89 h | Tmax ([10]; first tamoxifen administration): 3.6 h | half-life ([10]; 8th administration): 19.6 ± 5.84 h | half-life ([10]; first tamoxifen administration): 13.1 ± 5.77 h | AUC(0-inf) ([10]; 8th administration): 21500 ± 3040 ng·h/mL | AUC(0-inf) ([10]; first tamoxifen administration): 4860 ± 2870 ng·h/mL | AUC(0-t) ([10]; 8th administration): 12400 ± 2660 ng·h/mL | AUC(0-t) ([10]; first tamoxifen administration): 3230 ± 1790 ng·h/mL
